According to ChEMBL document CHEMBL4373715, “Discovery and Biological Evaluations of Halogenated 2,4-Diphenyl Indeno[1,2-b]pyridinol Derivatives as Potent Topoisomerase IIα-Targeted Chemotherapeutic Agents for Breast Cancer” (J Med Chem, 2019):
Calls of active or inactive are those of the source. The rule behind the calls is not given here.

Tests used:
[1] = Protein binding in human plasma assessed as unbound fraction at 1 mM measured after 1 hr by LC-MS/MS analysis; format: ADME, cell-free
[2] = target: DNA topoisomerase 2-alpha (Homo sapiens) (UniProt P11388); experiment: Poison activity at recombinant human topoisomerase-2 alpha assessed as stabilization of enzyme-DNA cleavage complex by measuring linear DNA formation at 500 uM using supercoiled pBR322 DNA as substrate after 60 mins by agarose gel electrophoresis method
Sequence of DNA topoisomerase 2-alpha (Homo sapiens) (P11388 whole entry): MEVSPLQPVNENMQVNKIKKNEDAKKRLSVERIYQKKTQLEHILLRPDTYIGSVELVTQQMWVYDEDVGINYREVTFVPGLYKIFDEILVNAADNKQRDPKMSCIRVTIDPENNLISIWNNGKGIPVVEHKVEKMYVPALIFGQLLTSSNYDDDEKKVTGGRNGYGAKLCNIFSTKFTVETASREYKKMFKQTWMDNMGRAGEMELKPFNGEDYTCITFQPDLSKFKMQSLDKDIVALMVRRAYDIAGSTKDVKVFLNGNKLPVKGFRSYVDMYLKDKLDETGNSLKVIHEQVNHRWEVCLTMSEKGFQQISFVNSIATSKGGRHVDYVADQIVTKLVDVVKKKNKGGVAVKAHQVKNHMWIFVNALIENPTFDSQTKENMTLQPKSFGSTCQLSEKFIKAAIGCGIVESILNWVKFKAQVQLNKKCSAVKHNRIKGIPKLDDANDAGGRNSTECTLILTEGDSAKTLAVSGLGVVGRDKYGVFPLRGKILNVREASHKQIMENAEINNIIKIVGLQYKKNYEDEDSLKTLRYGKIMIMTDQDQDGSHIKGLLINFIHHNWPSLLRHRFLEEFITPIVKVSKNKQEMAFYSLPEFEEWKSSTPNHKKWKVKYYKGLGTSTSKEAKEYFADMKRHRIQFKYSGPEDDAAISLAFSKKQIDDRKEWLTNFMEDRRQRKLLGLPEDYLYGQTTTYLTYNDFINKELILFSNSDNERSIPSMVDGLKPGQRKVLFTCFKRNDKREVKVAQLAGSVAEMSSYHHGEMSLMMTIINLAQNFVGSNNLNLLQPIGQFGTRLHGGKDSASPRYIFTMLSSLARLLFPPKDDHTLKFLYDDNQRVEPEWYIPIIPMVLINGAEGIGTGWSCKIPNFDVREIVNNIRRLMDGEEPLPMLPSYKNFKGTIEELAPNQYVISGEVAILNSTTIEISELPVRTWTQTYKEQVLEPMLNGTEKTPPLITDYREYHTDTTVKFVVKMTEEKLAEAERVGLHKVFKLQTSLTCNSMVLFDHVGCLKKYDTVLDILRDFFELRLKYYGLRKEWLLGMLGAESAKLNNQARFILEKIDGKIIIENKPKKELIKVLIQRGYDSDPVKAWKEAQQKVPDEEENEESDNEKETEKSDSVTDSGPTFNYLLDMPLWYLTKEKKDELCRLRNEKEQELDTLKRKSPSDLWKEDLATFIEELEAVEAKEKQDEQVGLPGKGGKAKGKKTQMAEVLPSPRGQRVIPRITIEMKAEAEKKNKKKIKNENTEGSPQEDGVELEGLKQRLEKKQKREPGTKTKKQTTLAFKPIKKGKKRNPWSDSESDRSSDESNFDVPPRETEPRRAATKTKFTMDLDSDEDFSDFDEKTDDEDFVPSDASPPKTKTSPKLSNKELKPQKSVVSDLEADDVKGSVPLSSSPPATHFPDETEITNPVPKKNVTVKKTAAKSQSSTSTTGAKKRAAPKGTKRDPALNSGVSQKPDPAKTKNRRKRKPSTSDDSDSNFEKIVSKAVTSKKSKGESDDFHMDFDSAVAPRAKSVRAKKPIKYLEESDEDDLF

[3] = tested on: MDA-MB-231; experiment: Antiproliferative activity against human MDA-MB-231 cells measured after 72 hrs by Ez-cytox assay; format: functional, cell-based; settings: MDA-MB-231, 72 h
[4] = Stability in mouse plasma assessed as parent compound remaining at 1 mM measured after 1 hr by LC-MS/MS analysis; format: ADME, cell-free; settings: read-out: Stability
[5] = tested on: MDA-MB-231; experiment: Antitumor activity against human MDA-MB-231 cells expressing luciferase xenografted in mouse assessed as reduction in tumor weight at 12 mg/kg, iv administered once daily for 10 days measured 18 days post-last dose by bioluminescent imaging analysis; format: functional, organism-based
[6] = Toxicity in female ICR mouse assessed as change in body weight at 50 to 100 mg/kg, iv administered as single dose measured daily for 7 days; format: organism-based; settings: in vivo, 168 h
[7] = Protein binding in rat plasma assessed as unbound fraction at 1 mM measured after 1 hr by LC-MS/MS analysis; format: ADME, cell-free
[8] = tested on: T47D; experiment: Induction of apoptosis in human T47D cells assessed as increase in cleaved PARP expression at 10 to 30 uM measured after 24 hrs by Western blot analysis; format: functional, cell-based
[9] = tested on: MDA-MB-231; experiment: Antitumor activity against human MDA-MB-231 cells expressing luciferase xenografted in mouse assessed as tumor growth inhibition at 12 mg/kg, iv administered once daily for 10 days measured on day 4 and 11 by bioluminescent imaging analysis; format: functional, organism-based
[10] = Protein binding in mouse plasma assessed as unbound fraction at 1 mM measured immediately by LC-MS/MS analysis; format: ADME, cell-free
[11] = Toxicity in male ICR mouse assessed as mortality at 50 mg/kg, iv administered as single dose measured daily for 7 days (reference value: 0%); format: organism-based; settings: in vivo
[12] = target: DNA topoisomerase 2-alpha (Homo sapiens) (UniProt P11388); experiment: Inhibition of recombinant human topoisomerase 2alpha-mediated relaxation of supercoiled pBR322 DNA at 100 uM measured after 30 mins by ethidium bromide staining based agarose gel electrophoresis relative to control
[13] = Stability in human plasma assessed as parent compound remaining at 1 mM measured immediately by LC-MS/MS analysis; format: ADME, cell-free; settings: read-out: Stability
[14] = target: DNA topoisomerase 2-alpha (Homo sapiens) (UniProt P11388); experiment: Inhibition of recombinant human topoisomerase 2alpha-mediated relaxation of supercoiled pBR322 DNA at 20 uM measured after 30 mins by ethidium bromide staining based agarose gel electrophoresis relative to control
[15] = Toxicity in female ICR mouse assessed as mortality at 50 mg/kg, iv administered as single dose measured daily for 7 days (reference value: 0%); format: organism-based; settings: in vivo
[16] = target: T1, DNA topoisomerase 1 (Homo sapiens) (UniProt P11387); experiment: Inhibition of recombinant human topoisomerase 1-mediated relaxation of supercoiled pBR322 DNA at 100 uM measured after 30 mins by ethidium bromide staining based agarose gel electrophoresis relative to control
T1 sequence (whole entry): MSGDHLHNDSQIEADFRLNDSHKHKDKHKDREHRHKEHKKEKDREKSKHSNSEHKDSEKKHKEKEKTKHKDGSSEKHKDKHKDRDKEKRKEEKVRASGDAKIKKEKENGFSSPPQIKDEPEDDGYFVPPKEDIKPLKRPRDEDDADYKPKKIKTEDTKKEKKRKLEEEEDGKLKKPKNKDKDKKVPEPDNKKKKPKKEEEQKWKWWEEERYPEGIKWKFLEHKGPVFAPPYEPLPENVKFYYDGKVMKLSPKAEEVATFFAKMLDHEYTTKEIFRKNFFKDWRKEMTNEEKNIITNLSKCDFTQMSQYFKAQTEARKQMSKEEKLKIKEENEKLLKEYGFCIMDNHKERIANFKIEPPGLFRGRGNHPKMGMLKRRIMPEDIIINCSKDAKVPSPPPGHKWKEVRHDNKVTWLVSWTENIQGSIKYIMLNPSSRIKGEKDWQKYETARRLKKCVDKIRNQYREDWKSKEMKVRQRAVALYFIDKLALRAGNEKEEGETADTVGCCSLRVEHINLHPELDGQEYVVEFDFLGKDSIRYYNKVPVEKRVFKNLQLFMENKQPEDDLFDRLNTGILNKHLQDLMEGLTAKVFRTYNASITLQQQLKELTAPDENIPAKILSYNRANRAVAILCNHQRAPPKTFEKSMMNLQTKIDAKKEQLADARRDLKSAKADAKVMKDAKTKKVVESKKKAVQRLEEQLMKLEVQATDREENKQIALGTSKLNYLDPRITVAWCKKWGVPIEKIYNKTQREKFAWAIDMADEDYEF

[17] = Protein binding in human plasma assessed as unbound fraction at 1 mM measured immediately by LC-MS/MS analysis; format: ADME, cell-free
[18] = Half life in human liver microsomes at 1 mM in presence of NADPH by LC-MS/MS analysis; format: ADME, Microsome
[19] = Stability in rat plasma assessed as parent compound remaining at 1 mM measured immediately by LC-MS/MS analysis; format: ADME, cell-free; settings: read-out: Stability
[20] = tested on: MDA-MB-436; experiment: Antiproliferative activity against human MDA-MB-436 cells measured after 72 hrs by Ez-cytox assay; format: functional, cell-based; settings: MDA-MB-436, 72 h
[21] = Stability in mouse plasma assessed as parent compound remaining at 1 mM measured after 0.25 hrs by LC-MS/MS analysis; format: ADME, cell-free; settings: read-out: Stability
[22] = tested on: T47D; experiment: Induction of DNA damage in human T47D cells at 5 to 10 uM measured after 24 hrs by comet assay; format: functional, cell-based
[23] = tested on: T47D; experiment: Induction of apoptosis in human T47D cells assessed as increase in Bax expression at 10 to 30 uM measured after 24 hrs by Western blot analysis; format: functional, cell-based
[24] = Toxicity in female ICR mouse assessed as physical abnormalities at 50 to 100 mg/kg, iv administered as single dose measured up to 7 days; format: organism-based; settings: in vivo, 168 h
[25] = Stability in rat plasma assessed as parent compound remaining at 1 mM measured after 4 hrs by LC-MS/MS analysis; format: ADME, cell-free; settings: 1000 µM
[26] = tested on: DU-145; experiment: Antiproliferative activity against human DU145 cells measured after 72 hrs by EZ-Cytox assay; format: functional, cell-based; settings: DU-145, 72 h
[27] = Toxicity in male ICR mouse assessed as mortality at 100 mg/kg, iv administered as single dose measured daily for 7 days (reference value: 0%); format: organism-based; settings: in vivo
[28] = target: DNA topoisomerase 2-alpha (Homo sapiens) (UniProt P11388); experiment: Poison activity at topoisomerase-2 alpha in human T47D cells assessed as stabilization of enzyme-DNA cleavage complex by measuring reduction in topo-2alpha level at 50 uM measured after 2 hrs by Western blot analysis; format: cell-based
[29] = target: DNA topoisomerase 2-alpha (Homo sapiens) (UniProt P11388); experiment: Poison activity at topoisomerase-2 alpha in human T47D cells assessed as stabilization of enzyme-DNA cleavage complex by measuring reduction in topo-2alpha level at 50 uM measured after 2 hrs in presence of etoposide by Western blot analysis; format: cell-based
[30] = Protein binding in mouse plasma assessed as unbound fraction at 1 mM measured after 1 hr by LC-MS/MS analysis; format: ADME, cell-free

Oc1ccc(-c2cc(-c3ccccc3Cl)nc3c2Cc2c(O)cccc2-3)cc1
fraction unbound at 1 h [1]: 0.959 | Activity [2]: Active | IC50 [3]: 2700 nM | remaining at 1 h [4]: 110% | Activity [5]: Active | Activity [6]: Non-Toxic | fraction unbound at 1 h [7]: 1 | Activity [8]: Active | TGI [9]: Active | fraction unbound at 0 h [10]: 1 | mortality at 168 h [11]: 0% | inhibition [12]: 100% | remaining at 0 h [13]: 100% | inhibition [14]: 78.9% | mortality at 168 h [15]: 0% | inhibition [16]: 0% | fraction unbound at 0 h [17]: 1 | half-life [18]: 6.53 h | remaining at 0 h [19]: 100% | IC50 [20]: 2640 nM | remaining at 0.25 h [21]: 109% | Activity [22]: Active | Activity [23]: Active | Activity [24]: Non-Toxic | Stability [25]: 130.4% | IC50 [26]: 72 nM | mortality at 168 h [27]: 0% | Activity [28]: Active | Activity [29]: Active | fraction unbound at 1 h [30]: 0.999
